# Data reported in the kinase profiling compilation of Christmann-Franck et al. (2016).
# Experiments:
# Experiment in all cases: KINOMEscan competition binding
# Conditions in all cases: compound 10.0 µM
# [1] = target: MAP3K3 (human) (UniProt Q99759)
# [2] = target: CAMK2A (human) (UniProt Q9UQM7)
# [3] = target: CDK4 CCND3 (human) (UniProt P11802+P30281)
# [4] = target: MARK1 (human) (UniProt Q9P0L2)
# [5] = target: STK32B (human) (UniProt Q9NY57)
# [6] = target: AKT2 (human) (UniProt P31751)
# [7] = target: VRK2 (human) (UniProt Q86Y07)
# [8] = target: PRKCQ (human) (UniProt Q04759)
# [9] = target: CDC42BPG (human) (UniProt Q6DT37)
# [10] = target: RIOK3 (human) (UniProt O14730)
# [11] = target: WEE2 (human) (UniProt P0C1S8)
# [12] = target: PIM3 (human) (UniProt Q86V86)
# [13] = target: JAK1 JH1 catalytic (human) (UniProt P23458)
# [14] = test system: KIT (human), P10721 [V559D/V654A]
# [15] = target: ACVR1 (human) (UniProt Q04771)
# [16] = target: CLK3 (human) (UniProt P49761)
# [17] = target: NTRK2 (human) (UniProt Q16620)
# [18] = target: STK4 (human) (UniProt Q13043)
# [19] = target: HIPK4 (human) (UniProt Q8NE63)
# [20] = target: JAK2 JH1 catalytic (human) (UniProt O60674)
# [21] = target: EPHA5 (human) (UniProt P54756)
# [22] = target: CAMK1D (human) (UniProt Q8IU85)
# [23] = target: GRK7 (human) (UniProt Q8WTQ7)
# [24] = target: MAPK1 (human) (UniProt P28482)
# [25] = target: RPS6KB1 (human) (UniProt P23443)
# [26] = target: RPS6KA5 KD2 (human) (UniProt O75582)
# [27] = target: MYO3A (human) (UniProt Q8NEV4)
# [28] = target: STK39 (human) (UniProt Q9UEW8)
# [29] = target: FGR (human) (UniProt P09769)
# [30] = target: PTK2B (human) (UniProt Q14289)
# [31] = target: PRKACA (human) (UniProt P17612)
# [32] = target: CDKL5 (human) (UniProt O76039)
# [33] = target: CDK4 CCND1 (human) (UniProt P11802+P24385)
# [34] = target: MAP3K4 (human) (UniProt Q9Y6R4)
# [35] = target: ADCK3 (human) (UniProt Q8NI60)
# [36] = target: PI4KB (human) (UniProt Q9UBF8)
# [37] = target: MYLK3 (human) (UniProt Q32MK0)
# [38] = target: RPS6KA6 KD2 (human) (UniProt Q9UK32)
# [39] = target: NEK1 (human) (UniProt Q96PY6)
# [40] = target: MAPK6 (human) (UniProt Q16659)
# Sequence of KIT (human), P10721 [V559D/V654A] (P10721 whole entry V559D/V654A, looked up): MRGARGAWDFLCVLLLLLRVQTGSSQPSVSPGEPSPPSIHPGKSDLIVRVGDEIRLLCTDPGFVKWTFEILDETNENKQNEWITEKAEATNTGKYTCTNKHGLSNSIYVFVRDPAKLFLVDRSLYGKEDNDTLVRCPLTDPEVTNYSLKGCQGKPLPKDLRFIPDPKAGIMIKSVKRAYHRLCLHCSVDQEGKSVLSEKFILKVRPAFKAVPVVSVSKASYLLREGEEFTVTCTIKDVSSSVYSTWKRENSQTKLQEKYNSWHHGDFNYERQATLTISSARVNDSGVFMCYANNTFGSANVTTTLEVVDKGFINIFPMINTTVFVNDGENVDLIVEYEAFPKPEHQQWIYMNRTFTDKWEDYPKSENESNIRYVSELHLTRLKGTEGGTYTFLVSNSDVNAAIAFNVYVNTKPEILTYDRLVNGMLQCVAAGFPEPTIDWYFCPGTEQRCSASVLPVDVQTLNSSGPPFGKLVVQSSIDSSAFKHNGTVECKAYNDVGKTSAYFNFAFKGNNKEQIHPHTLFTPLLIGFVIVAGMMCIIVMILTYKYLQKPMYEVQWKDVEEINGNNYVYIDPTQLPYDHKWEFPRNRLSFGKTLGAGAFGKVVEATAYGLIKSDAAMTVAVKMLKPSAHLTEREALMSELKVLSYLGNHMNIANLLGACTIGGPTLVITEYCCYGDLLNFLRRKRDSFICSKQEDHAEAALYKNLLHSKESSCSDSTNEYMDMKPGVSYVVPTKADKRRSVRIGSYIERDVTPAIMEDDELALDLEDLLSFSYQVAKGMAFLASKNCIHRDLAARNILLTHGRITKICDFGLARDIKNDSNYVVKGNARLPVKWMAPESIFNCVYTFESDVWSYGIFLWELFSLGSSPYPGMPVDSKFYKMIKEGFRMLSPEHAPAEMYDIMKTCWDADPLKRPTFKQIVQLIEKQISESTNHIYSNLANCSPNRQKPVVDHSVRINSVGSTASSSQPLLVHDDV
# Sequence of JAK1 JH1 catalytic (human) (P23458 whole entry, looked up): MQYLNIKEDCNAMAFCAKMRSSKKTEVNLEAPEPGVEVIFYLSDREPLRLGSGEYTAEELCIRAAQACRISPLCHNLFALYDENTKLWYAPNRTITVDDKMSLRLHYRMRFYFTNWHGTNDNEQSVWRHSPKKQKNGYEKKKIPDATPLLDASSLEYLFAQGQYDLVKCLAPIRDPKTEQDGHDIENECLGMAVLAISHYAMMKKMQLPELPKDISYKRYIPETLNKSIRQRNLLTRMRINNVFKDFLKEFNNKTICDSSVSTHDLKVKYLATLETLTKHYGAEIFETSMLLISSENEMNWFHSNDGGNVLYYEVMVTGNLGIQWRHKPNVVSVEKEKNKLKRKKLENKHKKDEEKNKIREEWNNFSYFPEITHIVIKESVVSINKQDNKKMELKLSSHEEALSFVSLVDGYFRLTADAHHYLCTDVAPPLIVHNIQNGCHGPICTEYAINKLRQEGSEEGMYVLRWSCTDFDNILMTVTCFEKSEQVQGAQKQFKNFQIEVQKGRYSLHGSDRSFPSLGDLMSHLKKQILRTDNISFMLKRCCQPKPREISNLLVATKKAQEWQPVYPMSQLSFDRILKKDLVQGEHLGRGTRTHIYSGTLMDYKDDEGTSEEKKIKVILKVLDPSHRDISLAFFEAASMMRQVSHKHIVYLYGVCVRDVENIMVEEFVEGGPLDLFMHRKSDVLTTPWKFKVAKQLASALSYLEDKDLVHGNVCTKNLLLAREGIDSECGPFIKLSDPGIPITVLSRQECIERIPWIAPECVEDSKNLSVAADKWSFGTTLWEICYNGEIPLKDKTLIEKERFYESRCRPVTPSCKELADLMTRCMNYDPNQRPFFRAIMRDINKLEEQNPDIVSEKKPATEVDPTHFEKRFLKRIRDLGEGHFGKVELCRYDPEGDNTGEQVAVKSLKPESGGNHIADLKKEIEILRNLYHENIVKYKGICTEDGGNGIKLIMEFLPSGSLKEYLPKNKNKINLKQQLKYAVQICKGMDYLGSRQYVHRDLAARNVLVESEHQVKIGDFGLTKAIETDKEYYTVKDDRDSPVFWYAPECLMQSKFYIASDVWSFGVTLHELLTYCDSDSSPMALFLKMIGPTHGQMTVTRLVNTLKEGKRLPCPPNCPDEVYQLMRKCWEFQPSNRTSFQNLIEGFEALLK
# Sequence of MAP3K3 (human) (Q99759 whole entry, looked up): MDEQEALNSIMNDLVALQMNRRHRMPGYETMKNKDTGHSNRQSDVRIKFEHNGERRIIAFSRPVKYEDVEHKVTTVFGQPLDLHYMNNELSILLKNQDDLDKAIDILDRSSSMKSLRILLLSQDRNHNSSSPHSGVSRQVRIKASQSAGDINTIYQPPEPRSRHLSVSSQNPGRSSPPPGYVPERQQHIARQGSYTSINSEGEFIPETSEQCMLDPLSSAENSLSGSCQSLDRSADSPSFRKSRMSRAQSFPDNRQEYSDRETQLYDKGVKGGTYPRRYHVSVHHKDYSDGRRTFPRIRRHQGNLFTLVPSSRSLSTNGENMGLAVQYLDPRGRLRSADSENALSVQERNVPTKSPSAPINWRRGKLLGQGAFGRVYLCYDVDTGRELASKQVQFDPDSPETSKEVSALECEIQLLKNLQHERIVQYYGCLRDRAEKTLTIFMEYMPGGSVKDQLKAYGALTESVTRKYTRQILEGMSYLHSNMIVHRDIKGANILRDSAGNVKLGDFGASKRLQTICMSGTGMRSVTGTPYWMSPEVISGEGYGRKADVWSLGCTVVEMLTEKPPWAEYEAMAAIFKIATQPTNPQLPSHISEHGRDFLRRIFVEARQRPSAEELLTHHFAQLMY
# Sequence of RIOK3 (human) (O14730 whole entry, looked up): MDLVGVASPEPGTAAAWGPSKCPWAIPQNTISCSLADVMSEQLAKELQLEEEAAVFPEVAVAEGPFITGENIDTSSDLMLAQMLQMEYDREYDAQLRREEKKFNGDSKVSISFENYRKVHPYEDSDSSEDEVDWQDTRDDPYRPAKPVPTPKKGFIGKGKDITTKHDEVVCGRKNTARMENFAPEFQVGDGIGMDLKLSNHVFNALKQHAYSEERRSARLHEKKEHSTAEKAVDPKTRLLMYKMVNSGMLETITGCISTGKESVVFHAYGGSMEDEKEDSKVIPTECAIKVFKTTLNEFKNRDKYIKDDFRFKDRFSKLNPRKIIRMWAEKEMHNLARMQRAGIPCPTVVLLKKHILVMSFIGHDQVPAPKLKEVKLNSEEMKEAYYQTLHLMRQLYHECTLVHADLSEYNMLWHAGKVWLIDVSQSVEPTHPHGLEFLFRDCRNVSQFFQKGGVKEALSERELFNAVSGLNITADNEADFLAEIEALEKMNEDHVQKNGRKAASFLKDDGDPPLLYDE
# Sequence of RPS6KA6 KD2 (human) (Q9UK32 whole entry, looked up): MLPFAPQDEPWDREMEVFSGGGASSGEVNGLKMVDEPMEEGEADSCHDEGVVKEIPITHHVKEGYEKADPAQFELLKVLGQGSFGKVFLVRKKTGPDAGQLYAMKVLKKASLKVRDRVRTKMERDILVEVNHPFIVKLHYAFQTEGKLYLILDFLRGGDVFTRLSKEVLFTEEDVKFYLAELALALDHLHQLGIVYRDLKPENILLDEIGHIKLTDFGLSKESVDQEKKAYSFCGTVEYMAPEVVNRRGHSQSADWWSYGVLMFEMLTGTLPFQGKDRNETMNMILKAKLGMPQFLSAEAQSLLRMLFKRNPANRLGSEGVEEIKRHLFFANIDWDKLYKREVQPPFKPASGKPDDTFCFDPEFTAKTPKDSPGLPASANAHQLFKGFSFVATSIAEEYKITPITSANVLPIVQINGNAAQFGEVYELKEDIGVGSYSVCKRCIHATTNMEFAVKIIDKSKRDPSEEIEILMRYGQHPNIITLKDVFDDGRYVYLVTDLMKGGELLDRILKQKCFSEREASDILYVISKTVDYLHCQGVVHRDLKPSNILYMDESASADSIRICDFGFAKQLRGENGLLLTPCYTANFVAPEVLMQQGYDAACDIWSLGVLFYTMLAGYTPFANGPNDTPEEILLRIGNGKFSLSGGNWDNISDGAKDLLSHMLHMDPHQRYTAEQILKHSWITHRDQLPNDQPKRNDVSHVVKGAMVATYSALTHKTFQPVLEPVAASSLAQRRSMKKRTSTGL
# Sequence of PTK2B (human) (Q14289 whole entry, looked up): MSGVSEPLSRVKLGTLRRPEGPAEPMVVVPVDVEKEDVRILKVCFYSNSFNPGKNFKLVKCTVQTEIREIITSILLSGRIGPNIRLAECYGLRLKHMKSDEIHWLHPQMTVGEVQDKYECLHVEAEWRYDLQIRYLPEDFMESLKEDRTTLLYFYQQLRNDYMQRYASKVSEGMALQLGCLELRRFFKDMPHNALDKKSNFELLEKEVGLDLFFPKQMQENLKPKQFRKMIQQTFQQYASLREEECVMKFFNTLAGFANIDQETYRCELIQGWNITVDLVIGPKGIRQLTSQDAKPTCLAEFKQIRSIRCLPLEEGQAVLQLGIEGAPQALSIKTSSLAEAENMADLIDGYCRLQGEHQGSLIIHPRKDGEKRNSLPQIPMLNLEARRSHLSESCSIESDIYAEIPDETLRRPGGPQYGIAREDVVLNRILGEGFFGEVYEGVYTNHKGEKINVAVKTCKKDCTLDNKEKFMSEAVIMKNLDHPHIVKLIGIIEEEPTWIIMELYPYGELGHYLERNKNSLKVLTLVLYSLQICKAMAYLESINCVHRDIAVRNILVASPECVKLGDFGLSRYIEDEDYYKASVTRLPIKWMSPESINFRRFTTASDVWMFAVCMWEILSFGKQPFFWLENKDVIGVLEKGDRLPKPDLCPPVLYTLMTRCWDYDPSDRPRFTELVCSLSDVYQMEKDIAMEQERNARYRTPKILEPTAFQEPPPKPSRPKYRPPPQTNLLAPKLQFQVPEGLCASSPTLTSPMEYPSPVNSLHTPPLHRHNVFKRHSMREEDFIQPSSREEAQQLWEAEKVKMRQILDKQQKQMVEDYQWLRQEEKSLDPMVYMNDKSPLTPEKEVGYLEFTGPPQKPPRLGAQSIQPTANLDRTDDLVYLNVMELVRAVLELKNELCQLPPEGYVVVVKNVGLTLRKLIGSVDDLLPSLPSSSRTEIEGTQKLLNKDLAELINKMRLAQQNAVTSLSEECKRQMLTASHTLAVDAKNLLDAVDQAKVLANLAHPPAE
compound,measurement,setting,value
CCN1CCN(C(=O)Cc2ccc(Nc3ncc(F)c(Nc4ccc(C(=O)Nc5ccccc5Cl)cc4)n3)cc2)CC1,"kinase still bound, per cent of control",[1],49%
same,"kinase still bound, per cent of control",[2],68%
same,"kinase still bound, per cent of control",[3],21%
same,"kinase still bound, per cent of control",[4],51%
same,"kinase still bound, per cent of control",[5],100%
same,"kinase still bound, per cent of control",[6],95%
same,"kinase still bound, per cent of control",[7],100%
same,"kinase still bound, per cent of control",[8],74%
same,"kinase still bound, per cent of control",[9],66%
same,"kinase still bound, per cent of control",[10],0.2%
same,"kinase still bound, per cent of control",[11],12%
same,"kinase still bound, per cent of control",[12],67%
same,"kinase still bound, per cent of control",[13],6.9%
same,"kinase still bound, per cent of control",[14],84%
same,"kinase still bound, per cent of control",[15],13%
same,"kinase still bound, per cent of control",[16],23%
same,"kinase still bound, per cent of control",[17],27%
same,"kinase still bound, per cent of control",[18],98%
same,"kinase still bound, per cent of control",[19],2.4%
same,"kinase still bound, per cent of control",[20],76%
same,"kinase still bound, per cent of control",[21],92%
same,"kinase still bound, per cent of control",[22],5.6%
same,"kinase still bound, per cent of control",[23],71%
same,"kinase still bound, per cent of control",[24],100%
same,"kinase still bound, per cent of control",[25],39%
same,"kinase still bound, per cent of control",[26],66%
same,"kinase still bound, per cent of control",[27],100%
same,"kinase still bound, per cent of control",[28],100%
same,"kinase still bound, per cent of control",[29],43%
same,"kinase still bound, per cent of control",[30],33%
same,"kinase still bound, per cent of control",[31],42%
same,"kinase still bound, per cent of control",[32],100%
same,"kinase still bound, per cent of control",[33],34%
same,"kinase still bound, per cent of control",[34],83%
same,"kinase still bound, per cent of control",[35],43%
same,"kinase still bound, per cent of control",[36],100%
same,"kinase still bound, per cent of control",[37],100%
same,"kinase still bound, per cent of control",[38],62%
same,"kinase still bound, per cent of control",[39],17%
same,"kinase still bound, per cent of control",[40],21%
